For three molecules, inhibition and residual activity results are on record in ChEMBL document CHEMBL5696442, “Discovery of type II inhibitors of TGFβ-activated kinase 1 (TAK1) and mitogen-activated protein kinase kinase kinase kinase 2 (MAP4K2)” (J Med Chem, 2015).

For experiment [1], the target named is T1, Dual specificity mitogen-activated protein kinase kinase 7 (Homo sapiens) (UniProt O14733).
T1 sequence (whole entry): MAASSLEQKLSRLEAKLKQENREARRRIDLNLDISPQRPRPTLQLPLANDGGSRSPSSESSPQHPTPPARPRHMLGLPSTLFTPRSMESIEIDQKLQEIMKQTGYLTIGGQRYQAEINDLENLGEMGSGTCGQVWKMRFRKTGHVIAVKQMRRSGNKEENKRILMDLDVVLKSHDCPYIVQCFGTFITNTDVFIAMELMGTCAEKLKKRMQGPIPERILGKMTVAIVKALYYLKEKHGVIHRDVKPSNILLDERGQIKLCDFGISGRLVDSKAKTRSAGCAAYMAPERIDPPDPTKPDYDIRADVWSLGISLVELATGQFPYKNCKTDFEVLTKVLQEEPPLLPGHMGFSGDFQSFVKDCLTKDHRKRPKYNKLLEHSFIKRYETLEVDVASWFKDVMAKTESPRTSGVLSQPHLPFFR
As to the kind of experiment: Inhibition of MAP2K7 Lys2 labeling site in human Huh-7 cell lysate at 1 uM by KiNativ Profiling analysis relative to control. Format: subcellular.

Experiment [2] has as its target Serine/threonine-protein kinase WNK4 (Homo sapiens) (UniProt Q96J92). As to the kind of experiment: Inhibition of Wnk4 Lys2 labeling site in human Huh-7 cells at 1 uM by KiNativ Profiling analysis relative to control. Format: cell-based.
In experiment [3] the target is T2, Phosphatidylinositol 4,5-bisphosphate 3-kinase catalytic subunit delta isoform (Homo sapiens) (UniProt O00329).
T2 sequence (whole entry): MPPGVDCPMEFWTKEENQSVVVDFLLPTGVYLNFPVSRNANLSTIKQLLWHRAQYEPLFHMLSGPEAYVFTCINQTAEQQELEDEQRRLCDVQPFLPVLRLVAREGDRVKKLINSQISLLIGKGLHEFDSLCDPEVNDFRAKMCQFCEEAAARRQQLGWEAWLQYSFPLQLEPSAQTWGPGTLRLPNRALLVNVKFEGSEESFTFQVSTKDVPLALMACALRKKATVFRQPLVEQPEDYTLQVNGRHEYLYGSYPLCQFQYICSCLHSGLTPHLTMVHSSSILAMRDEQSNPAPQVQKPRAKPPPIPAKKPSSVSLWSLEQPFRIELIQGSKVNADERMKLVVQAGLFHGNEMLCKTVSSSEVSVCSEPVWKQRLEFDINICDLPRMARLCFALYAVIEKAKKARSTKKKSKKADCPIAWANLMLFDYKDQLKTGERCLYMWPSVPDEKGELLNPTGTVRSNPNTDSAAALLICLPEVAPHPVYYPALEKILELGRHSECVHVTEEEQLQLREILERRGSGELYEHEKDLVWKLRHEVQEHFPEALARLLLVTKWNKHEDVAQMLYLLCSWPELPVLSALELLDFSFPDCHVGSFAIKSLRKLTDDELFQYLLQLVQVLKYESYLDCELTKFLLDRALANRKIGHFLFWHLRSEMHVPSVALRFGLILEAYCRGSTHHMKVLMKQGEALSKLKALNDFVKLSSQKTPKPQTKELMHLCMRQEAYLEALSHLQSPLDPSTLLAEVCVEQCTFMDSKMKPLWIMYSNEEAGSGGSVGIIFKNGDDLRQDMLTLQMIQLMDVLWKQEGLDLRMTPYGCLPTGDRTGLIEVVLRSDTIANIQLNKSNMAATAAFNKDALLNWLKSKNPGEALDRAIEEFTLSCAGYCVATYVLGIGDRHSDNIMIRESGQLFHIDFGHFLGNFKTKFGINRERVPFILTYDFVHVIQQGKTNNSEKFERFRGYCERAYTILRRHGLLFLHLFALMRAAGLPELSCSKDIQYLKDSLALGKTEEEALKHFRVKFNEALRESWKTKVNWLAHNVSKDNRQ
As to the kind of experiment: Inhibition of PIK3CD ATP labeling site in human A-375 cells at 5 uM by KiNativ Profiling analysis relative to control. Format: cell-based.

The target in experiment [4] is T3, Serine/threonine-protein kinase 3 (Homo sapiens) (UniProt Q13188).
T3 sequence (whole entry): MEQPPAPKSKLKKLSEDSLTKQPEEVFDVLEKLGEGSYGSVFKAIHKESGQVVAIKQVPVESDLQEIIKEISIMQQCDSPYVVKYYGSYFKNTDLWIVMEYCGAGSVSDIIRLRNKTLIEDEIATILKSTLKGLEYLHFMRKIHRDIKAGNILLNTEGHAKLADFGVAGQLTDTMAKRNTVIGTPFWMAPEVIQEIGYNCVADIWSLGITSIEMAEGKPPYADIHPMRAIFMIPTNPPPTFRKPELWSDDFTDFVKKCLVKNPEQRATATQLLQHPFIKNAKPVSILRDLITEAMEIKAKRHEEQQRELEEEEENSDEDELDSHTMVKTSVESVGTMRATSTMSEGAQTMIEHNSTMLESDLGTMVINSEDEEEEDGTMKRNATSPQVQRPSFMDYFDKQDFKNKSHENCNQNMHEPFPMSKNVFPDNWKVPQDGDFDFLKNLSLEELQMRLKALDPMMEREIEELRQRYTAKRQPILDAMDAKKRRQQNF
As to the kind of experiment: Inhibition of MST2 (unknown origin) at 10 uM by Ambit Kinomescan binding assay.

In experiment [5] the target is SRSF protein kinase 2 (Homo sapiens) (UniProt P78362). As to the kind of experiment: Inhibition of SRPK2 (unknown origin) at 10 uM by Ambit Kinomescan binding assay.
Sequence of SRSF protein kinase 2 (Homo sapiens) (P78362 whole entry, looked up): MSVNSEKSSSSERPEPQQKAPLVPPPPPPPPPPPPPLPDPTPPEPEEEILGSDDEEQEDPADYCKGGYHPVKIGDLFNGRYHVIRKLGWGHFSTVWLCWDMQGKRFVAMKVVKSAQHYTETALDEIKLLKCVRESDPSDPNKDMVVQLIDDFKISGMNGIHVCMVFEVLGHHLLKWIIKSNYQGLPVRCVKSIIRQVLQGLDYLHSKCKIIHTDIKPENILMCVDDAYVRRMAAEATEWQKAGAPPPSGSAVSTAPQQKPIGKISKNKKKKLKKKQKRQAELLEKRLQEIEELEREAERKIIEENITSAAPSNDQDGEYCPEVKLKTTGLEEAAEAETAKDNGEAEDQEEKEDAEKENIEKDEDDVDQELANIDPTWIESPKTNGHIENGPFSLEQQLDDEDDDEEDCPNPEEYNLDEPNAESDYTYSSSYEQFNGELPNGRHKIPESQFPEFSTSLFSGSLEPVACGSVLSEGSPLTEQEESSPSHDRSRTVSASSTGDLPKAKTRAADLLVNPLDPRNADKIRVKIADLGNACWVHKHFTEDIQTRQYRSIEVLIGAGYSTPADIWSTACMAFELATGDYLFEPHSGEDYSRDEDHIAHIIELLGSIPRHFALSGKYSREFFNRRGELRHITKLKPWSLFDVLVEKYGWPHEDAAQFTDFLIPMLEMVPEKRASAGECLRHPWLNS
For experiment [6], the target named is Tyrosine-protein kinase ABL1 (Homo sapiens, UniProt P00519). As to the kind of experiment: Inhibition of ABL Lys1 labeling site in human A-375 cells at 0.05 uM by KiNativ Profiling analysis relative to control. The experiment is classed as cell-based.
Sequence of Tyrosine-protein kinase ABL1 (P00519 whole entry, canonical isoform): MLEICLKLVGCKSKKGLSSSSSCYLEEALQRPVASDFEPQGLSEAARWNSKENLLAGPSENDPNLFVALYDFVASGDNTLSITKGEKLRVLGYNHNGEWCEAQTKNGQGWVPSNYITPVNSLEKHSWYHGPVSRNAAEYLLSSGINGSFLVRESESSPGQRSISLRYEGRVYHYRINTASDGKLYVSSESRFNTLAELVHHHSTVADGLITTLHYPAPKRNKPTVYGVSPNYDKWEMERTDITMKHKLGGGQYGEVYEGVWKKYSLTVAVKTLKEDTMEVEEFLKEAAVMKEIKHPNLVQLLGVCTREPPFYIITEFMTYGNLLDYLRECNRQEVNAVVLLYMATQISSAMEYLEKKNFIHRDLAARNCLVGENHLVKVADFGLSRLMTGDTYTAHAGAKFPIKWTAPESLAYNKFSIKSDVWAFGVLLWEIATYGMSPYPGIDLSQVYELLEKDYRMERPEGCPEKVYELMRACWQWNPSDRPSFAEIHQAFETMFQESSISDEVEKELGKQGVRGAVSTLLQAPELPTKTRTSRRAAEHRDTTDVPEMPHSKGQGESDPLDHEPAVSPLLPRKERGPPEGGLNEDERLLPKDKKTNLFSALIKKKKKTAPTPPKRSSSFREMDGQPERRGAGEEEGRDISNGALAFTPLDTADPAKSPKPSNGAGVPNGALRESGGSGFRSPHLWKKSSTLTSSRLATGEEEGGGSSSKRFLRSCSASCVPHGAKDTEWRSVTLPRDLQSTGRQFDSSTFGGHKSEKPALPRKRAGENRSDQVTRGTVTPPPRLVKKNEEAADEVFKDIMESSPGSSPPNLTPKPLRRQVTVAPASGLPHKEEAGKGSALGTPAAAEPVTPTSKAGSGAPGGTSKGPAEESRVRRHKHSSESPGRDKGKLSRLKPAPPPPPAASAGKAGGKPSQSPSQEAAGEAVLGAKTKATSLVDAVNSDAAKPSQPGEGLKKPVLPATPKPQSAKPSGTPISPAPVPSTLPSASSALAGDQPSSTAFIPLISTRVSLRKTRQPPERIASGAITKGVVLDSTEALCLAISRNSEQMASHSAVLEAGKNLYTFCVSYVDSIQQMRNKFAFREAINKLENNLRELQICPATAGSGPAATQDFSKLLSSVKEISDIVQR
Experiment [7] has as its target Phosphatidylinositol 4,5-bisphosphate 3-kinase catalytic subunit beta isoform (Homo sapiens) (UniProt P42338). As to the kind of experiment: Inhibition of PIK3CB ATP labeling site in human Huh-7 cells at 1 uM by KiNativ Profiling analysis relative to control. Format: cell-based.
For experiment [8], the target named is T4, Serine/threonine-protein kinase ULK3 (Homo sapiens) (UniProt Q6PHR2).
T4 sequence (whole entry): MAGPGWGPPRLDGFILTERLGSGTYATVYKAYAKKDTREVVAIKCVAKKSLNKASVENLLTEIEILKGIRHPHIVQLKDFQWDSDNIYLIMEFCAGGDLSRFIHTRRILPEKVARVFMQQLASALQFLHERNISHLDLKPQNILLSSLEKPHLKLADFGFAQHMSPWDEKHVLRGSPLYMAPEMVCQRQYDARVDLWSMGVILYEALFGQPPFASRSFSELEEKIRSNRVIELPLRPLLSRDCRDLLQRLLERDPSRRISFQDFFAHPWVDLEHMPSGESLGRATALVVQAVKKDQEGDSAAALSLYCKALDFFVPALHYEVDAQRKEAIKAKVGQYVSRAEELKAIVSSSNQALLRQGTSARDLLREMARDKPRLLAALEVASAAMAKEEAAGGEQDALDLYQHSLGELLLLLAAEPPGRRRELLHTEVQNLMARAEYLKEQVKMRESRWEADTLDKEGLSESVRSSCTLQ
As to the kind of experiment: Inhibition of ULK3 (unknown origin) at 10 uM by Ambit Kinomescan binding assay relative to control; values are per cent of control.

In general, inhibition refers to the drop in the measured response relative to a control, in per cent. The term residual activity denotes what remains of the control signal, in per cent.

Structures are written as SMILES. Calls of active or inactive are those of the source. The rule behind the calls is not given here.

Sequence of Phosphatidylinositol 4,5-bisphosphate 3-kinase catalytic subunit beta isoform (Homo sapiens) (P42338 whole entry, looked up, canonical isoform): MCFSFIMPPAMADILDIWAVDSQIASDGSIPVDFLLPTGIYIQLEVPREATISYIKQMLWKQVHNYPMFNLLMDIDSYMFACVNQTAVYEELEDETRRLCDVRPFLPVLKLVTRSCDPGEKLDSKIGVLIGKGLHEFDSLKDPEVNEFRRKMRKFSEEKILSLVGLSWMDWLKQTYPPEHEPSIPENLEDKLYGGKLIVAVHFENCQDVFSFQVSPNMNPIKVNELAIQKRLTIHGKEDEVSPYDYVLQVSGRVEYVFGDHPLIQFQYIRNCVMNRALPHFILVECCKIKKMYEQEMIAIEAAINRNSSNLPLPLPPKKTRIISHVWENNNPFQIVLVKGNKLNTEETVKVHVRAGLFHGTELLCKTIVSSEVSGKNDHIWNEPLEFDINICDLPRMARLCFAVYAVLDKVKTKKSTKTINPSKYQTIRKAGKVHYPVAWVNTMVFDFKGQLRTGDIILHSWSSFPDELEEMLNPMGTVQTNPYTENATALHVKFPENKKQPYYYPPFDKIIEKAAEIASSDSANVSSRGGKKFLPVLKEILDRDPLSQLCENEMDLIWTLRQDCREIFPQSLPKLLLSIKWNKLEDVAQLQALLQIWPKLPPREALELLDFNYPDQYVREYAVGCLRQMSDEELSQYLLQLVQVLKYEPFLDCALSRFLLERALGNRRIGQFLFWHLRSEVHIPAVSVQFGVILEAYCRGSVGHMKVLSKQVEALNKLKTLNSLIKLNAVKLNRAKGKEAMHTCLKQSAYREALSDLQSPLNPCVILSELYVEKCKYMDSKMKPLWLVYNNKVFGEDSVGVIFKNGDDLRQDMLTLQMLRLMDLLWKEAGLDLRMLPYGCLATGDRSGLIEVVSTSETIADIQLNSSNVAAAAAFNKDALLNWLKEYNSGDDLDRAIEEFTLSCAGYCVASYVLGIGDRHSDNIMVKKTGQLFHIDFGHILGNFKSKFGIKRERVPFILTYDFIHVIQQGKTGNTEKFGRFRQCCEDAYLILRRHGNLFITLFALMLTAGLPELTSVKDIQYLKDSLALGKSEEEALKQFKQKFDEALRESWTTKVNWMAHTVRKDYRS
Sequence of Serine/threonine-protein kinase WNK4 (Homo sapiens) (Q96J92 whole entry, canonical isoform): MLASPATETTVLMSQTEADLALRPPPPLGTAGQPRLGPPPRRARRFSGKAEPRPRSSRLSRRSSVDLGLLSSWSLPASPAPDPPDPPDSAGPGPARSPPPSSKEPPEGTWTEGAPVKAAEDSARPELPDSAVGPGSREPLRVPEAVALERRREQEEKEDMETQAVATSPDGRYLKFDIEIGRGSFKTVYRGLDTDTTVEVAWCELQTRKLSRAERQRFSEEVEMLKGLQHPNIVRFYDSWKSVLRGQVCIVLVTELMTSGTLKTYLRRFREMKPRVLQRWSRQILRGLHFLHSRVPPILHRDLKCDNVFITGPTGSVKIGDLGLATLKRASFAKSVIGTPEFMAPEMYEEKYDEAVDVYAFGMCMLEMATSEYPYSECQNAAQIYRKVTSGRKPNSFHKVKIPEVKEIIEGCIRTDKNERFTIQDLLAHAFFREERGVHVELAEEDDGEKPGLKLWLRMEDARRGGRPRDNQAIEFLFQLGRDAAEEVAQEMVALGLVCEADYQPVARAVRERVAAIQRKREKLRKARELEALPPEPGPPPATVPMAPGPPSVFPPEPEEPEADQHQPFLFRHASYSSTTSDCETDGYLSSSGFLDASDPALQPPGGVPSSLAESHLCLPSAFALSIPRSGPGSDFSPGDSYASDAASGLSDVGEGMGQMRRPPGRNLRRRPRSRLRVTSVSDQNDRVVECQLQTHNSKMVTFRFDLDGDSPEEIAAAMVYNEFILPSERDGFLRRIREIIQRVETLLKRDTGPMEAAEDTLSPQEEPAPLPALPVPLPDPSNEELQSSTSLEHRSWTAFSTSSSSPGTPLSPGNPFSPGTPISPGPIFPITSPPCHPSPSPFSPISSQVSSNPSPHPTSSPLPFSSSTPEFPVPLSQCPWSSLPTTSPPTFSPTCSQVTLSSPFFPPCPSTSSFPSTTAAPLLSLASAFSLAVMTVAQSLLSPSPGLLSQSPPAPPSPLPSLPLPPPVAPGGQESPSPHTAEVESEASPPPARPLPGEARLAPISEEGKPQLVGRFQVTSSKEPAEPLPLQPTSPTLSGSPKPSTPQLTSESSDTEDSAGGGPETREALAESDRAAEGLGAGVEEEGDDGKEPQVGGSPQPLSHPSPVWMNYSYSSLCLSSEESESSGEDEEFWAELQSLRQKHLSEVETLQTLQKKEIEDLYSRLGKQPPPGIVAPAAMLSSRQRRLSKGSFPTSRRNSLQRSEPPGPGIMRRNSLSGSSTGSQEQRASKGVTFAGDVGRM

On to `CNc1cc(Oc2cc(C(=O)Nc3cc(N4CCN(C)CC4)cc(C(F)(F)F)c3)ccc2C)ncn1`, for which the inhibition in experiment [1] turned out to be 2.7%; in experiment [2] it was 44.2%.

`CCN1CCN(Cc2ccc(NC(=O)c3ccc(C)c(/C=C/c4cnc5[nH]ccc5c4OC)c3)cc2C(F)(F)F)CC1` returned an inhibition in experiment [3] of 21.3%.

Consider `CCN1CCN(Cc2ccc(NC(=O)c3ccc(C)c(Oc4ccnc5[nH]ccc45)c3)cc2C(F)(F)F)CC1`, for which the inhibition entry in experiment [4], in experiment [5] and in experiment [7] was “inactive” each time. In experiment [6], this molecule registered an inhibition of 84.8%. The same molecule yielded a residual activity in experiment [8] of 0.1%.
